According to patent US20060257539A1 (priority 2005, published 2006):

Columns and labels:
[1] = comparative antimicrobial activity in various foodstuff or media (summary table); design: key: + means antimicrobial activity, multiple + indicates increased antimicrobial activity; ++: multiple + indicates increased antimicrobial activity; +++: multiple + indicates increased antimicrobial activity; − means no antimicrobial activity
[2] = system: C. botulinum Toxin type B (non-proteolytic) spores; type: cell-based, Clostridium botulinum; settings: pH 5.5
Lactobacillus plantarum = type: cell-based
[3] = system: C. botulinum Toxin type A (proteolytic) spores; type: cell-based, Clostridium botulinum; settings: pH 5.5
[4] = system: C. botulinum Beluga E vegetative cells; type: cell-based, Clostridium botulinum
[5] = standard plate well diffusion assay of RTD beverage; type: cell-based
[6] = system: C. botulinum 33A (proteolytic) vegetative cells; type: cell-based, Clostridium botulinum; settings: pH 5.5
[7] = system: C. botulinum Beluga E (Non-proteolytic) vegetative cells; type: cell-based, Clostridium botulinum; settings: pH 5.5
[8] = system: C. botulinum Toxin type E spores; type: cell-based, Clostridium botulinum; settings: pH 5.5
[9] = system: all tested C. botulinum strains (spores); type: cell-based, Clostridium botulinum
[10] = system: Lactococcus lactis subsp. cremoris; type: cell-based
[11] = system: C. botulinum E mixed strains vegetative cells; type: cell-based, Clostridium botulinum
[12] = system: C. botulinum Alaska E (non-proteolytic) vegetative cells; type: cell-based, Clostridium botulinum; settings: pH 5.5
[13] = system: C. botulinum Alaska E vegetative cells; type: cell-based, Clostridium botulinum
[14] = system: Lactococcus lactis subsp. cremoris; type: cell-based; remark: listed apart in the source
[15] = system: all strains of C. botulinum tested (vegetative cells); type: cell-based, Clostridium botulinum
[16] = system: Lactococcus lactis subsp. cremoris; type: cell-based; remark: listed apart in the source
[17] = system: C. botulinum 53B (proteolytic) vegetative cells; type: cell-based, Clostridium botulinum; settings: pH 5.5
[18] = system: C. botulinum Toxin type B (proteolytic) spores; type: cell-based, Clostridium botulinum; settings: pH 5.5

Question: With ε-poly-L-lysine as the substance, how does the antimicrobial activity ([1]; BHI broth) read?
Answer: Its antimicrobial activity is “−”.

Question: And the antimicrobial activity ([1]; Beverages)?
Answer: Its antimicrobial activity is “+”.

Question: And the antimicrobial activity ([1]; Brain heart infusion agar (BHI))?
Answer: The antimicrobial activity was “−”.

Question: And the antimicrobial activity ([1]; Green beans packed in water)?
Answer: Its antimicrobial activity is “−”.

Question: What about the antimicrobial activity ([1]; Hot dogs) of the same substance?
Answer: The antimicrobial activity was “−”.

Question: And the antimicrobial activity ([1]; Savory cream)?
Answer: Its antimicrobial activity is “−”.

Question: And the “Inhibition zone against indicator C. botulinum strain Toxin type B (non-proteolytic)” value [2]?
Answer: The value was 0 mm.

Question: What about the “inhibition of growth of L. plantarum (in words)” value (Lactobacillus plantarum) of the same substance?
Answer: The value was “very limited inhibition on the initial growth of L. plantarum”.

Question: And the “Inhibition zone against indicator C. botulinum strain Toxin type A (proteolytic)” value [3]?
Answer: Its value is 0 mm.

Question: And the “Inhibition zone against indicator C. botulinum strain Beluga E” value [4]?
Answer: Its value is 0 mm.

Question: What about the “effect on apparent nisin activity in RTD beverage (in words)” value ([5]; very low levels of ε-poly-L-lysine (50 ppm) added to nisin 250 IU/ml) of the same substance?
Answer: The value was “significantly increased”.

Question: And the Inhibition zone ([5]; ε-poly-L-lysine 50 ppm alone, fruit juice-containing RTD beverage)?
Answer: The Inhibition zone was 0 mm.

Question: And the “Inhibition zone against indicator C. botulinum strain 33A (proteolytic)” value [6]?
Answer: The value was 0 mm.

Question: What about the “Inhibition zone against indicator C. botulinum strain Beluga E (Non-proteolytic)” value [7] of the same substance?
Answer: The value was 0 mm.

Question: What about the “Inhibition zone against indicator C. botulinum strain Toxin type E” value [8] of the same substance?
Answer: Its value is 0 mm.

Question: What about the “inhibition of growth of C. botulinum from spores (in words)” value [9] of the same substance?
Answer: Its value is “unable to inhibit the growth of C. botulinum from spores”.

Question: What about the “effect on apparent nisin activity (in words)” value [10] of the same substance?
Answer: Its value is “significantly increased”.

Question: And the “Inhibition zone against indicator C. botulinum E mixed strains” value [11]?
Answer: The value was 0 mm.

Question: What about the “Inhibition zone against indicator C. botulinum strain Alaska E (non-proteolytic)” value [12] of the same substance?
Answer: The value was 0 mm.

Question: What about the “Inhibition zone against indicator C. botulinum strain Alaska E” value [13] of the same substance?
Answer: Its value is 0 mm.

Question: And the Apparent nisin activity [14]?
Answer: The Apparent nisin activity was 0 IU/g.

Question: And the “effect on measurable nisin activity in dairy product (in words)” value [14]?
Answer: Its value is “increased the measurable nisin activity”.

Question: What about the “inhibition of growth of C. botulinum strains from vegetative cells (in words)” value [15] of the same substance?
Answer: The value was “did not show clear or strong inhibition”.

Question: What about the Inhibition zone [16] of the same substance?
Answer: Its Inhibition zone is 0 mm.

Question: What about the “Inhibition zone against indicator C. botulinum strain 53B (proteolytic)” value [17] of the same substance?
Answer: Its value is 0 mm.

Question: What about the “Inhibition zone against indicator C. botulinum strain Toxin type B (proteolytic)” value [18] of the same substance?
Answer: Its value is 0 mm.
